# Measured values taken from ChEMBL document CHEMBL5465560, “Selectivity Literature for EUbOPEN Chemogenomic Library” (2024).
# pIC50: −log10 of the molar value.
# Legend:
# [1] = target: Serine/threonine-protein kinase 38 (Homo sapiens) (UniProt Q15208); conditions: at 10 µM
# [2] = test system: Leucine-rich repeat serine/threonine-protein kinase 2 (Homo sapiens), Q5S007 [G2019S]; test: (§1) Selectivity interaction (KinomeScan (DiscoverX)) EUB0001049a LRRK2; conditions: at 1 µM
# [3] = target: T1, Leucine-rich repeat serine/threonine-protein kinase 2 (Homo sapiens, UniProt Q5S007); test: as §1; conditions: at 1 µM
# T1 sequence (Q5S007 whole entry): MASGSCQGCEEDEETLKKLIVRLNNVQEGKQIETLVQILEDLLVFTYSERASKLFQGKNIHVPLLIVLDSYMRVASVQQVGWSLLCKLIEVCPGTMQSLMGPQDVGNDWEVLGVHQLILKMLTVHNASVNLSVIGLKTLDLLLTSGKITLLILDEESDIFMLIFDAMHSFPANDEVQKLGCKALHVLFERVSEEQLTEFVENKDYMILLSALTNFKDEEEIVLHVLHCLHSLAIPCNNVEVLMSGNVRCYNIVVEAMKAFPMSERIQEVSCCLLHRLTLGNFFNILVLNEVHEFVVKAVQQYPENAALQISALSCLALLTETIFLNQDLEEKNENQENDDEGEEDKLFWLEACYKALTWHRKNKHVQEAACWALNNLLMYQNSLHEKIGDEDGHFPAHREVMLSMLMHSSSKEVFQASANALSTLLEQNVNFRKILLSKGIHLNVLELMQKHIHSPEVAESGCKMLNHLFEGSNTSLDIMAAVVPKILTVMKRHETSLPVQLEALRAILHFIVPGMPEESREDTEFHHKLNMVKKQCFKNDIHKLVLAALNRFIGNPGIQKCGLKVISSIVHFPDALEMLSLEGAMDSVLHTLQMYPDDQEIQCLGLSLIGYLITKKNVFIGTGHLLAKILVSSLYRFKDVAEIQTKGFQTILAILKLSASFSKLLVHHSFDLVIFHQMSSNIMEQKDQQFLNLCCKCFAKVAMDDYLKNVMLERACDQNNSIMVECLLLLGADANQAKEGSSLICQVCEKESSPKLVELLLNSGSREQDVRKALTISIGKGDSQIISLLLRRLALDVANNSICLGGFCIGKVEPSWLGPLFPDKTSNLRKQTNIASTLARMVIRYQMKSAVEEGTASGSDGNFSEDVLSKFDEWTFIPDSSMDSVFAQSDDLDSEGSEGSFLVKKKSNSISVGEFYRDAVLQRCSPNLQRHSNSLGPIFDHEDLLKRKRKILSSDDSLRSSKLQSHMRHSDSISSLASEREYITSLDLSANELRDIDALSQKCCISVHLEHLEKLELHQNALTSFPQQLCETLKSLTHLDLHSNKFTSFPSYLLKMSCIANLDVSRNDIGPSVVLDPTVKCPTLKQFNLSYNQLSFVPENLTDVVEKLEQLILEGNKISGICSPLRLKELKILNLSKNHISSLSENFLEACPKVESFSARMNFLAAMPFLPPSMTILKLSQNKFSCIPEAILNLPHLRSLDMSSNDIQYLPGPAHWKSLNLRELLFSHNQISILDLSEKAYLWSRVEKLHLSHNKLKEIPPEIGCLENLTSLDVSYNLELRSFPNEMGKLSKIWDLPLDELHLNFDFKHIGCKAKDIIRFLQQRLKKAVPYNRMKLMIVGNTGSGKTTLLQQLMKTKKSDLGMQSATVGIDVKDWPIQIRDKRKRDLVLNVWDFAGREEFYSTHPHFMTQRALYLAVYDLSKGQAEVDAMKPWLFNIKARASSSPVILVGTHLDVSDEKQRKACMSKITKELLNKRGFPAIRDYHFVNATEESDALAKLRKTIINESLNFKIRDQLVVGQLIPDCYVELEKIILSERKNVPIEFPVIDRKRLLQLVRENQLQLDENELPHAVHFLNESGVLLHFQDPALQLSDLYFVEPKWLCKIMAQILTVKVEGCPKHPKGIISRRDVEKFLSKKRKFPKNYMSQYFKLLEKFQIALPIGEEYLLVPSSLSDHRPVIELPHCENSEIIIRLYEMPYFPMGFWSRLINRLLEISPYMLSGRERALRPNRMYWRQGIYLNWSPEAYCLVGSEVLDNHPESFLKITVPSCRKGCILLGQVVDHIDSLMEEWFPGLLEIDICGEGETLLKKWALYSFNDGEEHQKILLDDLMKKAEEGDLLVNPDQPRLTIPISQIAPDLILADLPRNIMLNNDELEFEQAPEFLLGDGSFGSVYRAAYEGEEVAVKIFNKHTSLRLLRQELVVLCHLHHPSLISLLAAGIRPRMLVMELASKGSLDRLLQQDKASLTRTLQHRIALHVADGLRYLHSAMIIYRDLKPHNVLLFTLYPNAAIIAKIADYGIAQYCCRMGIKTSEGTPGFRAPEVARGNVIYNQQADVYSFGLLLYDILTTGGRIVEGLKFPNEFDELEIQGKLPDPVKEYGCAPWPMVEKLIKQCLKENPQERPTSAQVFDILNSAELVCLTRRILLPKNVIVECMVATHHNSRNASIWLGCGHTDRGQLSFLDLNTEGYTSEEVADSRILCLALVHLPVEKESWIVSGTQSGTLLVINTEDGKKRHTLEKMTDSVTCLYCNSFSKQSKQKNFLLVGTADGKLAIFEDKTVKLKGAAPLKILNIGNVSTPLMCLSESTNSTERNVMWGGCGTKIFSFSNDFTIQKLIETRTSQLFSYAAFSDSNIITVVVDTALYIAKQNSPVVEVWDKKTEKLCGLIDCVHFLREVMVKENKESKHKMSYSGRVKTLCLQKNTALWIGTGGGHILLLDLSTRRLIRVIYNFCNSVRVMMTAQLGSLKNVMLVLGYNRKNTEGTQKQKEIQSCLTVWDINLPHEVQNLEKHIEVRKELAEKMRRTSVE
# [4] = target: Serine/threonine-protein kinase NIM1 (Homo sapiens, UniProt Q8IY84); test: Selectivity interaction (KinomeScan (DiscoverX)) EUB0001049a NIM1K; conditions: at 1 µM
# Serine/threonine-protein kinase NIM1, sequence (Q8IY84 whole entry): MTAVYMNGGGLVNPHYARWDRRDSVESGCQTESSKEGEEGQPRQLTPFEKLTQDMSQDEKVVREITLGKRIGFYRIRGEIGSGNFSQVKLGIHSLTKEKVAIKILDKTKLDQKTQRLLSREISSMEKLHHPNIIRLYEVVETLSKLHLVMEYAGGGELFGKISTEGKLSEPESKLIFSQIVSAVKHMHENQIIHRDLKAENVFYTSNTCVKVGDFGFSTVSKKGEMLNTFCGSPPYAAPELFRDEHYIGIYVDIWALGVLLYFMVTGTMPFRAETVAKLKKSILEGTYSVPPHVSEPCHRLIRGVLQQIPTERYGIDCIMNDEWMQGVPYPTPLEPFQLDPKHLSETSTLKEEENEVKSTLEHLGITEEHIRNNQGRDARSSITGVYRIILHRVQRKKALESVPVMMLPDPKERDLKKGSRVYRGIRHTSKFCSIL
# [5] = target: CDK7/Cyclin H/MNAT1 (Homo sapiens) (UniProt P51946+P50613+P51948); test: Selectivity interaction (Kinase panel (Invitrogen)) EUB0000639a CDK7; type: protein-complex assay; conditions: at 200 nM
# [6] = target: Serine/threonine-protein kinase N1 (Homo sapiens, UniProt Q16512); test: Selectivity interaction (ActivX KiNativ screen (kinase selectivity in THP-1 cell lysates)) EUB0000639a PKN1; type: subcellular; conditions: lysate, at 5 µM
# [7] = target: Ribosomal protein S6 kinase alpha-2 (Homo sapiens) (UniProt Q15349); test: Selectivity interaction (ActivX KiNativ screen (kinase selectivity in THP-1 cell lysates)) EUB0000639a RPS6KA2; type: subcellular; conditions: lysate, at 5 µM
# Ribosomal protein S6 kinase alpha-2 (Homo sapiens), sequence (Q15349 whole entry): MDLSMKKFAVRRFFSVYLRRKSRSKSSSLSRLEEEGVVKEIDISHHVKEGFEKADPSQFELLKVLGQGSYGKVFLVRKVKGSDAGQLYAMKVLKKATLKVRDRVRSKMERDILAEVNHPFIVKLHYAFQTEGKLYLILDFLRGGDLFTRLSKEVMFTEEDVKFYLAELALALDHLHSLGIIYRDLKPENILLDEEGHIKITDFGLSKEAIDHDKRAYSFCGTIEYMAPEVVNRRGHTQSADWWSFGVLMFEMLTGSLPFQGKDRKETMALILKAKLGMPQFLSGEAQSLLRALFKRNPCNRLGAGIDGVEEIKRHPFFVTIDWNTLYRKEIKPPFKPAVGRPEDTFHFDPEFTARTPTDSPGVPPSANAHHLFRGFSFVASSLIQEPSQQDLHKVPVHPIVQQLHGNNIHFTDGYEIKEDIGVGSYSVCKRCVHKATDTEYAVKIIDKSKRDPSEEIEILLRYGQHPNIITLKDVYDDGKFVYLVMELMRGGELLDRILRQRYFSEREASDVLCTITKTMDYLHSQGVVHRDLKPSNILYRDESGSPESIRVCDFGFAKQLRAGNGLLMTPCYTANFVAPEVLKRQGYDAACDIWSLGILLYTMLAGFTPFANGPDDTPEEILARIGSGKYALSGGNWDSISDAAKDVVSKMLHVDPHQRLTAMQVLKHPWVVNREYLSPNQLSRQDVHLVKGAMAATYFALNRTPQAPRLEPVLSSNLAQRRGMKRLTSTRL
# [8] = target: T2, Tyrosine-protein kinase ZAP-70 (Homo sapiens, UniProt P43403); test: Selectivity interaction (Kinase panel (33PanQinase(R) Activity Assay)) EUB0000877a ZAP70
# T2 sequence (P43403 whole entry): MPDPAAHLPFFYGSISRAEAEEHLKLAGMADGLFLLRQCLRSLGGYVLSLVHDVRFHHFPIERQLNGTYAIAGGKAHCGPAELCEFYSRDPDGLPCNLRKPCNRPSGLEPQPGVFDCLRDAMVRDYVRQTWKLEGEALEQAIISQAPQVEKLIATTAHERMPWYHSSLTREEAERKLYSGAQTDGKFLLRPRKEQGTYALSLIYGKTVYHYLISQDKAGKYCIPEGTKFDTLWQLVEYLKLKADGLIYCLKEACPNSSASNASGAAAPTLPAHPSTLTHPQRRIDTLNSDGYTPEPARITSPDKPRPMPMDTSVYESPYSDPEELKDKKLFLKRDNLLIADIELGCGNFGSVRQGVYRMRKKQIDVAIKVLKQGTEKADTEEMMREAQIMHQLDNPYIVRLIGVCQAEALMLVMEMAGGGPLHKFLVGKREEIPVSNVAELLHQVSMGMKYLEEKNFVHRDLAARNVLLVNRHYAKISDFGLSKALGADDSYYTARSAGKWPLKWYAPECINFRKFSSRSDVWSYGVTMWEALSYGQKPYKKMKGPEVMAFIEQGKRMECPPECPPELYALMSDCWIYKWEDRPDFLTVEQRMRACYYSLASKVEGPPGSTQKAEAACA
# [9] = target: Dual specificity protein kinase CLK4 (Homo sapiens, UniProt Q9HAZ1); test: Selectivity interaction (LanthaScreen Eu Kinase Binding Assay) EUB0001632a CLK4; conditions: at 10 µM
# D(3) dopamine receptor = D(3) dopamine receptor (Homo sapiens, UniProt P35462); test: Selectivity interaction (Eurofins CEREP Diversity Profile (receptors and ion channels)) EUB0000279b DRD3; conditions: at 10 µM
# D(3) dopamine receptor, sequence (P35462 whole entry): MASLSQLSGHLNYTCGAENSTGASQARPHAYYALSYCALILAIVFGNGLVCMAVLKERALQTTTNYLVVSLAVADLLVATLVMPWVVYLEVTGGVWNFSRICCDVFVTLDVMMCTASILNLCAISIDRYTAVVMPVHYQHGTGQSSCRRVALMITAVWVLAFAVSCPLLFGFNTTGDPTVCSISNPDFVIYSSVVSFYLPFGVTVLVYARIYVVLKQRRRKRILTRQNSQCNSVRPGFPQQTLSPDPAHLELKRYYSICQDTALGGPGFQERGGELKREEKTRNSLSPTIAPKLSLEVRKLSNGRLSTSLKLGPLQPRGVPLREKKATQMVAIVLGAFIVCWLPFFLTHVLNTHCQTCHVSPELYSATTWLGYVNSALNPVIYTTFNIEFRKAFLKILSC
# [10] = target: Serine/threonine-protein kinase Nek6 (Homo sapiens) (UniProt Q9HC98); test: Selectivity interaction (KinomeScan (DiscoverX)) EUB0000229b NEK6; conditions: at 10 µM
# Serine/threonine-protein kinase Nek6 (Homo sapiens), sequence (Q9HC98 whole entry): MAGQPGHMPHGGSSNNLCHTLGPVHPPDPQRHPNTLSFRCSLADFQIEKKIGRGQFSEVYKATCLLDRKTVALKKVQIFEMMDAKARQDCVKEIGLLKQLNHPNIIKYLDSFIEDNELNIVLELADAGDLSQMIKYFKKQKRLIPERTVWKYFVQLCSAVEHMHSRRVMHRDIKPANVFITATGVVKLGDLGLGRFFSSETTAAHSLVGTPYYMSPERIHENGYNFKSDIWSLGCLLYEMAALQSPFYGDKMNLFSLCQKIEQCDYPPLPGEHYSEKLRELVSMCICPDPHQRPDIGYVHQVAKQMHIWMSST
# [11] = target: Serine/threonine-protein kinase PAK 4 (Homo sapiens, UniProt O96013); test: Selectivity interaction (KinomeScan (DiscoverX)) EUB0000229b PAK4; conditions: at 10 µM
# [12] = target: T3, NUAK family SNF1-like kinase 1 (Homo sapiens) (UniProt O60285); test: Selectivity interaction (KinomeScan (DiscoverX)) EUB0001079a NUAK1; conditions: at 1 µM
# T3 sequence (whole entry): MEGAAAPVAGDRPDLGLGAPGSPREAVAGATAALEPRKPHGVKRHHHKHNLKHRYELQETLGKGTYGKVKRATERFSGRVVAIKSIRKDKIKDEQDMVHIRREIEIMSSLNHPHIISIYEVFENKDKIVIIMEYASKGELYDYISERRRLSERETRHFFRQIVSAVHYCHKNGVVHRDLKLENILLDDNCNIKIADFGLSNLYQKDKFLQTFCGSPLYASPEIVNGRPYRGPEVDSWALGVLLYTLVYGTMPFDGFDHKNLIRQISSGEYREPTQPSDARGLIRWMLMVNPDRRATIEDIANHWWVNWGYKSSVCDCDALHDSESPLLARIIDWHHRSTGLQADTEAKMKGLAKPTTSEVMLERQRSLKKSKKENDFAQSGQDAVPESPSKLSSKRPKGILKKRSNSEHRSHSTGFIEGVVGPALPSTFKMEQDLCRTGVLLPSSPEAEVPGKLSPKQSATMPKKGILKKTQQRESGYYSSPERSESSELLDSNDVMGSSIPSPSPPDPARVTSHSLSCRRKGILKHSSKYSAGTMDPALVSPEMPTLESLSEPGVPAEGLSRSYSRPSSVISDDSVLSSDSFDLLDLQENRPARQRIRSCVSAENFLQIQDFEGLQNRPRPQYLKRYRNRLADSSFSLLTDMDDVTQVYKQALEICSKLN
# [13] = target: T4, Calcium/calmodulin-dependent protein kinase type IV (Homo sapiens) (UniProt Q16566); test: Selectivity interaction (Upstate Kinase Profiler service (Millipore)) EUB0000056c CAMK4; conditions: at 1 µM
# T4 sequence (whole entry): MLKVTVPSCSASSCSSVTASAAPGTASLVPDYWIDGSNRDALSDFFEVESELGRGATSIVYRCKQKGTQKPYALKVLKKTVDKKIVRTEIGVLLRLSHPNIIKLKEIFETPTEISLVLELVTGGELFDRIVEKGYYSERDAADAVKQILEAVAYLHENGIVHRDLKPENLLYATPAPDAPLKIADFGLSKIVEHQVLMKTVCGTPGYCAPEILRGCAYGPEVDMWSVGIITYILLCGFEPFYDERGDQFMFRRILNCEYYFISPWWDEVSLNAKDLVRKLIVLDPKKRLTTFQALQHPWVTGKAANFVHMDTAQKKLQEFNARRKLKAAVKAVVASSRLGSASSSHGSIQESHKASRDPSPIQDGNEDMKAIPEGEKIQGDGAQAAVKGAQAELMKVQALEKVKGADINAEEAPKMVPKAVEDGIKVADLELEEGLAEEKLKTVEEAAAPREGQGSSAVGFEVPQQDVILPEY
# [14] = target: Ribosomal protein S6 kinase alpha-2 (Homo sapiens) (UniProt Q15349); test: Selectivity interaction (KinomeScan (DiscoverX)) EUB0000655a RPS6KA2; conditions: at 10 µM
# [15] = test system: Leucine-rich repeat serine/threonine-protein kinase 2 (Homo sapiens), Q5S007 [G2019S]; test: (§2) Selectivity interaction (KinomeScan (DiscoverX)) EUB0000618a LRRK2; conditions: at 10 µM
# [16] = target: T1, Leucine-rich repeat serine/threonine-protein kinase 2; test: as §2; conditions: at 10 µM
# [17] = target: Calcium/calmodulin-dependent protein kinase kinase 2 (Homo sapiens) (UniProt Q96RR4); test: Selectivity interaction (Kinase panel (DSF assay)) EUB0001559a CAMKK2
# Calcium/calmodulin-dependent protein kinase kinase 2 (Homo sapiens), sequence (Q96RR4 2-588 limits assumed): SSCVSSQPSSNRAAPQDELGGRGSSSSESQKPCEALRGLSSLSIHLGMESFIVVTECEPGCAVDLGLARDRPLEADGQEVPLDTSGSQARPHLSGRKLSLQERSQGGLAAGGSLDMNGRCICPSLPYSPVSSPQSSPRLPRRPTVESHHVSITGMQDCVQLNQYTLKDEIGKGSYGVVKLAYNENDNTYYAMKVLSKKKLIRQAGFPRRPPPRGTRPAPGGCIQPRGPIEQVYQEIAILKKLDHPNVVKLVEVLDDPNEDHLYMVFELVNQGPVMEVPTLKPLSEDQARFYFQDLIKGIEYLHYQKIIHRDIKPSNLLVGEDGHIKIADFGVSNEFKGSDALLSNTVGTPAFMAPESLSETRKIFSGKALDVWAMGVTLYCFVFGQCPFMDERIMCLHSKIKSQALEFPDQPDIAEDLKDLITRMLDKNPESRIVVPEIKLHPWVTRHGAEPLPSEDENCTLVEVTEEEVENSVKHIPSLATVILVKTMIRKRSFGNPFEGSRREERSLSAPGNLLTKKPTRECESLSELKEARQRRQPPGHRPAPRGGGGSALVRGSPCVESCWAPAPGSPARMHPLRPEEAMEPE
# [18] = target: Receptor tyrosine-protein kinase erbB-4 (Homo sapiens, UniProt Q15303); test: Selectivity interaction (SelectScreen profiling (Invitrogen)) EUB0000607a ERBB4; conditions: at 2 µM
# Leucine-rich repeat serine/threonine-protein kinase 2 (Homo sapiens), Q5S007 [G2019S], sequence (Q5S007 whole entry G2019S): as the sequence (Q5S007 whole entry) above, with G2019S counted along it
smiles,measurement,setting,value
Cc1cc([C@@H](C)Nc2ccccc2C(=O)O)c2nc(N3CCOCC3)cc(=O)n2c1 [AZD-6482],% of control,[1],100%
COc1cc(Nc2nc(C)cc(-c3cnn4nc(OC)ccc34)n2)cc(C(F)(F)F)c1,% of control,[2],100%
same,% of control,[3],100%
same,% of control,[4],94%
CC[C@@H]1[C@H](F)C(=O)N[C@@H]1COc1nccc2cc(C(N)=O)c(OC)cc12 [ZIMLOVISERTIB],% of inhibition,[5],2.84%
same,% of inhibition,[6],0.1%
same,% of inhibition,[7],6.4%
CCC(=O)N1CC[C@H](Nc2ncnc3c2CN(c2cnc(OC)c(C(F)(F)F)c2)CC3)C1 [LENIOLISIB],pIC50,[8],< 5.00
Cn1cc(-n2cnc3c(NCc4nc5cc(Cl)c(Cl)cc5[nH]4)nc(N4CCOCC4)nc32)cn1,% of inhibition,[9],12.3%
CC(=O)c1cc(-c2ccccc2OCC2CC2)c2ncccn12,% of control,D(3) dopamine receptor,81%
COc1cc(N(C)c2ccnc3ccc(C(F)(F)F)cc23)cc(OC)c1OC,% binding,[10],100%
same,% binding,[11],81%
Nc1cnc(N2CCc3cc(S(=O)(=O)Nc4c(F)cc(Cl)cc4F)cc(N4CCCC4=O)c32)nc1 [TP-020n],% of control,[12],100%
Cc1ccc(-c2ccc3c(ccc4sc5c(c43)NC[C@@H](C)NC5=O)n2)cn1,% of inhibition,[13],15%
CN(C)CCOc1ccc(-c2nc(-c3ccncc3)c(-c3ccc4c(c3)CC/C4=N\O)[nH]2)cc1,% of control,[14],100%
O[C@H]1CC[C@H](Nc2ncc3nc(Nc4c(F)cc(F)cc4F)n([C@H]4CCOC4)c3n2)CC1,% of control,[15],95%
same,% of control,[16],83%
CN(C(=O)c1cnn2cccnc12)c1cc2c(cc1N1CCOCC1)C(=O)N(C[C@@H](F)C(C)(C)O)C2,dTM,[17],1.1 K
CNC(=O)Nc1ccc(-c2nc(N3CC4CCC(C3)O4)c3cnn(C4CCC5(CC4)OCCO5)c3n2)cc1,% of inhibition,[18],3%
